# Laboratory results from US4200575A, “7[(2-Thiazolyl)-2-(oxoimino)acetamido]cephalosporin derivatives” (Takeda Chemical Industries, Ltd., priority 1977, dated 1980).
# How the values were obtained:
# Experiment in all cases: Minimal inhibitory concentration (M.I.C.), agar dilution method
# Details in all cases: TSA, inoculum 10^7 /ml
# P. morganii IFO 3168 = format: cell-based, Proteus morganii
# Excerpt: (§1) (a) Determination of minimal inhibitory concentrations (Tables 1 to 8):
# (§2) Procedure: agar dilution method
# K. pneumoniae GN 3835 = format: cell-based, Klebsiella pneumoniae
# Excerpt: as §1, §2
# K. pneumoniae DT = format: cell-based, Klebsiella pneumoniae
# Excerpt: as §1, §2
# P. vulgaris GN 4413 = format: cell-based, Proteus vulgaris
# Excerpt: as §1, §2
# P. vulgaris IFO 3988 = format: cell-based, Proteus vulgaris
# Excerpt: as §1, §2
# P. rettgeri TN 338 = format: cell-based, Proteus rettgeri
# Excerpt: as §1, §2
# P. rettgeri GN4733 = format: cell-based, Proteus rettgeri
# Excerpt: as §1, §2
# C. freundii GN 99 = format: cell-based, Citrobacter freundii
# Excerpt: as §1, §2
# C. freundii GN 1706 = format: cell-based, Citrobacter freundii
# Excerpt: as §1, §2
# E. coli T-7 = format: cell-based, Escherichia coli
# Excerpt: as §1, §2
# E. coli NIHJ JC-2 = format: cell-based, Escherichia coli
# Excerpt: as §1, §2
# S. marcescens TN 24 = format: cell-based, Serratia marcescens
# Excerpt: as §1, §2
# S. marcescens IFO 12648 = format: cell-based, Serratia marcescens
# Excerpt: as §1, §2
# E. cloacae TN 1282 = format: cell-based, Enterobacter cloacae
# Excerpt: as §1, §2
# E. coli 0-111 = format: cell-based, Escherichia coli
# Excerpt: The minimal inhibitory concentrations (M.I.C.) of some representative cephalosporin derivatives of this invention as produced by the procedures described in those examples and the minimal inhibitory concentrations of cephalothin [sodium 7-(2-thienylacetamido)-3-acetoxymethyl-3-cephem-4-carboxylate], cephaloridine [7-(2-thienylacetamido)-3-(1-pyridyl)methyl-3-cephem-4-carboxylic acid betaine] and cefazolin [sodium 7-(1H-tetrazol-1-yl)acetamido-3-(2-methyl-1,3,4-thiadiazol-5-yl)thiomethyl-3-cephem-4-carboxylate], which are among the clinically established and commercially available cephalosporins (as described, for example, in the New England Journal of Medicine 294, 24, 1976 and Journal of Pharmaceutical Science 64, 1899, 1975), both against various bacteria, as well as the therapeutic effects of some respresentative cephalosporin derivatives of this invention and of cephaloridine in infected mice, are shown in tables.
# as §1, §2
# S. aureus 1840 = format: cell-based, Staphylococcus aureus
# Excerpt: as §1, §2
# S. aureus 209P = format: cell-based, Staphylococcus aureus
# Excerpt: as §1, §2
# P. mirabilis GN 4359 = format: cell-based, Proteus mirabilis
# Excerpt: as §1, §2
SMILES,minimal inhibitory concentration (M.I.C.) (P. morganii IFO 3168),minimal inhibitory concentration (M.I.C.) (K. pneumoniae GN 3835),minimal inhibitory concentration (M.I.C.) (K. pneumoniae DT),minimal inhibitory concentration (M.I.C.) (P. vulgaris GN 4413),minimal inhibitory concentration (M.I.C.) (P. vulgaris IFO 3988),minimal inhibitory concentration (M.I.C.) (P. rettgeri TN 338),minimal inhibitory concentration (M.I.C.) (P. rettgeri GN4733),minimal inhibitory concentration (M.I.C.) (C. freundii GN 99),minimal inhibitory concentration (M.I.C.) (C. freundii GN 1706),minimal inhibitory concentration (M.I.C.) (E. coli T-7),minimal inhibitory concentration (M.I.C.) (E. coli NIHJ JC-2),minimal inhibitory concentration (M.I.C.) (S. marcescens TN 24),minimal inhibitory concentration (M.I.C.) (S. marcescens IFO 12648),minimal inhibitory concentration (M.I.C.) (E. cloacae TN 1282),minimal inhibitory concentration (M.I.C.) (E. coli 0-111),minimal inhibitory concentration (M.I.C.) (S. aureus 1840),minimal inhibitory concentration (M.I.C.) (S. aureus 209P),minimal inhibitory concentration (M.I.C.) (P. mirabilis GN 4359)
CNC(=O)O/N=C(\C(=O)NC1C(=O)N2C(C(=O)O)=C(CSc3cnn[nH]3)CSC12)c1csc(=N)[nH]1 (stereo not drawn) [Example IV - 9],0.78,0.78,≤ 0.2,25,0.39,≤ 0.2,1.56,0.78,1.56,3.13,0.78,6.25,6.25,6.25,≤ 0.2,3.13,3.13,0.39
CCNC(=O)O/N=C(\C(=O)NC1C(=O)N2C(C(=O)O)=C(COC(N)=O)CSC12)c1csc(=N)[nH]1 (stereo not drawn) [Example II - 8],3.13,0.2,0.05,100,0.1,≤ 0.012,0.05,0.1,0.39,1.56,0.2,6.25,6.25,12.5,0.024,3.13,3.13,0.1
CNC(=O)O/N=C(\C(=O)NC1C(=O)N2C(C(=O)O)=C(CSc3nnc(CC(N)=O)s3)CSC12)c1csc(=N)[nH]1 (stereo not drawn) [Example IV - 6],≤ 0.2,0.39,≤ 0.2,25,≤ 0.2,≤ 0.2,0.39,≤ 0.2,≤ 0.78,3.13,≤ 0.2,3.15,3.13,3.13,≤ 0.2,3.13,1.56,0.39
CCCCNC(=O)O/N=C(\C(=O)NC1C(=O)N2C(C(=O)O)=C(CSc3nnnn3C)CSC12)c1csc(=N)[nH]1 (stereo not drawn) [Example II - 22],0.78,0.78,0.1,12.5,0.1,≤ 0.012,0.1,0.2,0.78,6.25,0.39,5.13,6.25,12.5,0.024,3.13,0.78,0.39
"CNC(=O)O/N=C(\C(=O)NC1C(=O)N2C(C(=O)O)=C(CSc3nnc(C)s3)CSC12)c1csc(=N)[nH]1 (stereo not drawn) [Example II - 5, sodium 7-[2-(2-imino-4-thiazolin-4-yl)-2-methylcarbamoyloximinoacetamido]-3-(2-methyl-1,3,4-thiadiazol-5-yl)thiomethyl-3-cephem-4-carboxylate (syn-isomer)]",0.39,0.78,0.1,12.5,0.39,≤ 0.05,0.78,0.39,1.56,3.13,0.39,0.78,3.13,1.56,0.1,3.13,3.13,0.78
CNC(=O)O/N=C(\C(=O)NC1C(=O)N2C(C(=O)O)=C(CSc3nc(CC(=O)O)cs3)CSC12)c1csc(=N)[nH]1 (stereo not drawn) [Example IV - 7],0.78,0.39,≤ 0.2,50,≤ 0.2,≤ 0.2,0.39,0.78,3.13,6.25,0.78,6.25,3.13,12.5,≤ 0.2,12.5,12.5,≤ 0.2
CNC(=O)O/N=C(\C(=O)NC1C(=O)N2C(C(=O)O)=C(CSc3nnnn3CCO)CSC12)c1csc(=N)[nH]1 (stereo not drawn) [Example IV - 4],≤ 0.2,0.39,≤ 0.2,12.5,≤ 0.2,≤ 0.2,0.39,≤ 0.2,0.39,3.13,≤ 0.2,3.13,3.13,3.13,≤ 0.2,3.13,3.13,≤ 0.2
CC(=O)OCC1=C(C(=O)O)N2C(=O)C(NC(=O)/C(=N\OC(=O)NC3CCCCC3)c3csc(=N)[nH]3)C2SC1 (stereo not drawn) [Example II - 24],0.39,0.39,0.05,25,0.1,≤ 0.012,0.05,0.39,0.78,1.56,0.1,12.5,6.25,3.13,0.024,1.56,0.78,0.1
